Data published in patent publication US8128914B2, “Topical compositions containing CIS-6-nonenol and its derivatives and methods for treating skin” (Avon Products, Inc, priority 2008, dated 2012).

Test system: Metallothionein 2A (MT2A) mRNA
Assay: Stimulation of Metallothioneins: MT2A mRNA in normal human dermal fibroblasts (QuantiGene multiplex branched DNA assay)
Type: cell-based
Conditions: 24 hours, vs ethanol vehicle control, p<0.05
Method: Normal human dermal fibroblasts were cultured in 96 well tissue culture treated plates, containing appropriate culture medium. Stock solution of cis-6 nonenol was made in ethanol. Cells were treated with test material or ethanol vehicle control diluted in growth medium for 24 hours in a humidified 37° C. incubator with 10% CO2. After incubation, growth medium from each plate was removed and 100 μl of lysis buffer was added to the wells and placed in 37° C. incubator with 10% CO2 for 30 minutes. At the end of incubation, the cells were collected in freezer plates and placed in −80° C. freezer, until analysis. Changes in mRNA for Metallothionein 2A (MT2A) after treatment were analysed using Panomics' QuantiGene® multiplex assay that employs a branched DNA technology. Percent increase in mRNA for MT2A was calculated by comparing the test results to that of the vehicle control. […] All results reported are statistically significant at p<0.05.

CC/C=C\CCCCCO [Cis-6-nonenol, cis-6-nonenol]
stimulation in mRNA levels for Metallothionein 2A (0.001% cis-6-nonenol): 97%
stimulation in mRNA levels for Metallothionein 2A (0.01% cis-6-nonenol): 96%
